Measurements taken from patent US8334239B2, “High affinity VEGF-receptor antagonists” (The Board of Regents of the University of Texas System, priority 2007, dated 2012).
Entries after “also recorded” stand apart in the source; their conditions may differ. Where two headings read alike, the source gives them in different places. Starred links: 1 amine or outer side, 2 acyl side, 3 side chain; linkers in the order of their positions; H or OH if unused. Positions of bridges follow the written chain, without caps; N, C: chain ends. Non-standard residues stand in square brackets, D forms with d. Residues, ends and D or L forms follow the SMILES beside them. Chains are numbered I, II in the order given. *: point of attachment. Fluorescein(5-Mal) = O=C1OC2(c3ccc(O)cc3Oc3cc(O)ccc32)c2ccc(N3C(=O)CC(*)C3=O)cc21; Gly(N-piperonyl) = O=C(O)CNCc1ccc2c(c1)OCO2; X1 = CC(c1ccccc1)N(CC(=O)[*:2])[*:1]; Nrpe = C[C@@H](NCC(=O)O)c1ccccc1; Nleu = CC(C)CNCC(=O)O; Nlys = NCCCCNCC(=O)O; Ahx = NCCCCCC(=O)O; βAla = NCCC(=O)O

Tests used:
HUVEC [1] = assay: HUVEC tube formation assay; type: cell-based, human; settings: 1.3 nM VEGF
Method: HUVEC tube formation assay. Endothelial cell medium gel (ECM gel) was thawed overnight at 4° C. refrigerator and added 50 μl to each well of pre-chilled white, clear bottom 96-well plate. Incubated for 30 min to facilitate the gel formation. […] 150 μl of these treated cell suspension (20,000 cells) was added per well and incubated at 37° C. and visualized tube formation under the light microscope after 16 hours (10× magnification).

VEGFR2 ECD = VEGFR2 ECD (Homo sapiens, UniProt P35968); assay: Competitive binding assay against fluoresceinated GU40C; settings: increasing concentrations of unlabelled competitor
Sequence of VEGFR2 ECD (P35968 20-764 limits assumed): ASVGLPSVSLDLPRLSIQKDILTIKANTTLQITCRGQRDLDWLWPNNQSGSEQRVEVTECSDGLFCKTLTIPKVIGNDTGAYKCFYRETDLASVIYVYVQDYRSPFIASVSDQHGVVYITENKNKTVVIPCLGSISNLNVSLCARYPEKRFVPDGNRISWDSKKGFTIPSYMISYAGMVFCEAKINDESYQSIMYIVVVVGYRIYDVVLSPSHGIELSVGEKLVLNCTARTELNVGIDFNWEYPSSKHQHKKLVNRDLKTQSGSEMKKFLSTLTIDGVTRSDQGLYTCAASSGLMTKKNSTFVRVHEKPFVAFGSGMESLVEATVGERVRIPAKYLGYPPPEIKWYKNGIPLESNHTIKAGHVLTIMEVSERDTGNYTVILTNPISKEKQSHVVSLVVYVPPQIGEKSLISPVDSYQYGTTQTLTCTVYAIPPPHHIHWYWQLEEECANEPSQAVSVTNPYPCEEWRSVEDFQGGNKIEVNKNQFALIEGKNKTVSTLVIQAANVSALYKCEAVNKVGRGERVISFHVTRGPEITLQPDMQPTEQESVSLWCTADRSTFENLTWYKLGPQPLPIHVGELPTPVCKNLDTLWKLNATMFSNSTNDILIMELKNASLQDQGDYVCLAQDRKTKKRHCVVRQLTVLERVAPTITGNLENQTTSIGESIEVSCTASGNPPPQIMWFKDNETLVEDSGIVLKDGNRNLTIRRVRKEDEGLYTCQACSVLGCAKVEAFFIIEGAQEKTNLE
From the text: FIGS. 17A-B. GU40C truncation study results. (FIG. 17A) Downward arrows show GU40C truncation positions (FIG. 17B) Competitive binding assay results; increasing concentrations of unlabelled GU40C and truncated derivatives were competed with a constant amount of fluoraceinated GU40C. Symbols represent; GU40C (□), 8-mer (▴), 7-mer (▾), 6-mer (⋄), 5-mer (∘), 4-mer (▪), control (x).
To identify the main chain amides important for binding, the inventors synthesized five different truncated versions of GU40C, each containing all four of the N-terminal residues (FIG. 17A). Increasing concentrations of these truncated versions were competed with a constant amount of fluoresceinated GU40C for binding to the VEGR2 ECD. […] Elimination of the first C-terminal residue weakened binding about ten-fold (FIG. 17B). Further elimination of the next three C-terminal residues further diminished binding only slightly. However, deletion of the next residue essentially abolished binding of the peptoid to the VEGFR2 ECD.

VEGFR2 [2] = molecular target: T1, VEGFR2 (Homo sapiens, UniProt P35968); assay: VEGF-induced VEGFR2 autophosphorylation in PAE/KDR cells, Western blot; type: cell-based; design: allow the library to be screened against the full-length receptor in as natural an environment as possible; host or cells: PAE/KDR (porcine aortic endothelial cells expressing human KDR)
Method: Western blots. Experiments were conducted using PAE/KDR cells that were grown on 6-well plates. […] The blots were probed with Phospho-VEGF receptor 2 (Tyr1175) (19A10) rabbit monoclonal or Total VEGFR2 primary antibodies (Cell signaling) and HRP-conjugated secondary antibody (BioRad).
Functional characterization of the VEGFR2-binding peptoids. GU40C and GU40E were then tested for their ability to modulate VEGFR function. Of course, since the screen simply demanded binding of the peptoid to the receptor, it was not a given that this would be the case. […] Western blot analysis using phospho-VEGFR2-specific antibodies was then employed to monitor receptor activation.
To do so, the inventors examined the effect of the peptoid on VEGF-induced VEGFR2 autophosphorylation by Western blotting, as described earlier.
Target sequence in this assay (P35968 20-1356): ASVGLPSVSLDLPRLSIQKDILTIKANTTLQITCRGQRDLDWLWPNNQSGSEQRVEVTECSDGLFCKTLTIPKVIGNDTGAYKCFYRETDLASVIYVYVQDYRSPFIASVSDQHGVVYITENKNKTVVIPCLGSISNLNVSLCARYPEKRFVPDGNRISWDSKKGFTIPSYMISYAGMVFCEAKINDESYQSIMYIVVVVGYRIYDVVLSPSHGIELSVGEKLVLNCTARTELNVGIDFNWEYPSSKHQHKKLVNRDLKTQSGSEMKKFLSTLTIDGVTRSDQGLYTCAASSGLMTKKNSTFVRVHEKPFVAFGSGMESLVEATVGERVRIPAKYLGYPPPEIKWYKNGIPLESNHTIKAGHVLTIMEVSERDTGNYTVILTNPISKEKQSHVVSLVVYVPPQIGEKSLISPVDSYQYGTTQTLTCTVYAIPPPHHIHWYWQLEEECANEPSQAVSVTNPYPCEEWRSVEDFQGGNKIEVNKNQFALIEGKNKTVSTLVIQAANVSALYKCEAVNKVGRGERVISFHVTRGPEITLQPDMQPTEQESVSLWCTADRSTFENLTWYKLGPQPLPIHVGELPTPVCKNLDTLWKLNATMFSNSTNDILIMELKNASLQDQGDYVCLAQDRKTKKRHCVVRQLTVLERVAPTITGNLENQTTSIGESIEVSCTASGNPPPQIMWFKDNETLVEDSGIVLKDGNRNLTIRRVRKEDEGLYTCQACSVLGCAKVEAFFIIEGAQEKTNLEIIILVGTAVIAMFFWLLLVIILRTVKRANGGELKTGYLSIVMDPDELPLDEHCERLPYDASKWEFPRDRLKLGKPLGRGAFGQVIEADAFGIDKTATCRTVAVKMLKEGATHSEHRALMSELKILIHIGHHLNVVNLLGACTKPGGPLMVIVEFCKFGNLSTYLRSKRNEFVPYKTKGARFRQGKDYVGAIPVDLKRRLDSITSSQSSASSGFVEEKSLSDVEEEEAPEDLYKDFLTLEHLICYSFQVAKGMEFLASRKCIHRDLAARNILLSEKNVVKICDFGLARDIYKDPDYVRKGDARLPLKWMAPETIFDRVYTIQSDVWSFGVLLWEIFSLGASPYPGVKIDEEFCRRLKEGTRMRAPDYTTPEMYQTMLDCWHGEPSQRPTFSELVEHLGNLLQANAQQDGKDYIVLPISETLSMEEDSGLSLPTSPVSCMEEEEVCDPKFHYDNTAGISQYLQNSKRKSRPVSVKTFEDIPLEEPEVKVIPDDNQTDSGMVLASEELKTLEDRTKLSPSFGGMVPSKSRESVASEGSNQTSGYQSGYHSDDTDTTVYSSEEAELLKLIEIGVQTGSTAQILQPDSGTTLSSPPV

GST = assay: ELISA-like binding assay on immobilized GST; settings: same ELISA-like assay
CD105 = molecular target: T2, CD105 (Homo sapiens, UniProt P17813); assay: ELISA-like binding assay on immobilized CD105; settings: same ELISA-like assay
T2 sequence (P17813 26-658): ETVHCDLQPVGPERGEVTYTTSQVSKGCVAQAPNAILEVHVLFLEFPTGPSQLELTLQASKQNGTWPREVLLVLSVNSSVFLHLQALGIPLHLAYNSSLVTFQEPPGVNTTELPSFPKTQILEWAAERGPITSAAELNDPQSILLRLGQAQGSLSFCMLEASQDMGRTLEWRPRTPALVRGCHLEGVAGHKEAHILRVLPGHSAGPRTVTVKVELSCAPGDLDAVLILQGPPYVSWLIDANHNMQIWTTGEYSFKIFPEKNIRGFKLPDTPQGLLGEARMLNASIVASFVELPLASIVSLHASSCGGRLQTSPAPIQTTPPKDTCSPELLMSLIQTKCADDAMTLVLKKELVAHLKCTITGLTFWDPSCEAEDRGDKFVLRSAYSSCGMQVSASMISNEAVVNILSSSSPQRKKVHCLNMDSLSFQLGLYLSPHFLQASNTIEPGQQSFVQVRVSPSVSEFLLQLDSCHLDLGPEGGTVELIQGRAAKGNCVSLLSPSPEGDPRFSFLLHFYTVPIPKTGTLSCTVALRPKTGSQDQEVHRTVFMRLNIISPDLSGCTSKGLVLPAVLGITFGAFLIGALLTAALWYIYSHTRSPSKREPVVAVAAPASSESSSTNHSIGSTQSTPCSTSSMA

VEGFR2 [3] = molecular target: T1, VEGFR2; assay: ELISA-like binding assay, fluoresceinated peptoids on immobilized VEGFR2 extracellular domain; design: VEGFR2 extracellular domain (amino acids 1-764 fused to 6× histidine-tagged Fc of human IgG, via the peptide IEGRMD; R&D Systems); linker peptide IEGRMD (internal); Fc of human IgG (C); 6xHis (C); purchased R&D Systems; settings: for Kd: ELISA-like assay
Method: ELISA based binding assay. White, clear bottom 96-well plates (Corning Inc.) were coated with of 1 μg/ml recombinant human VEGFR2 protein (R&D Systems) using the sensitizing buffer (0.621 g NaHCO3 & 0.275 g Na2CO3 dissolved on 100 ml of ddH2O, pH=9.5) overnight at 4° C. Washed with 3×200 μl of wash buffer 1×PBS with 0.05% Tween-20 and blocked with Startingblock blocking buffer (Pierce). Added 50 μl of serial dilutions of FITC labeled peptoids dissolved in Startingblock blocking buffer to each well & allowed to react for 1 h at room temperature. Washed with 5×200 μl of wash buffer 1×PBS with 0.05% Tween-20 and remaining fluorescence was measured at 520 nm using the plate reader.
The isolated peptoids are VEGFR2 ligands. Two of the ‘hits’ from this screen, GU40C and GU40E (see FIG. 2) were resynthesized, both as free compounds and with C-terminal Cys (for C-terminal fluorescein tagging via maleimide chemistry), cleaved from the beads and purified to apparent homogeneity by reverse phase HPLC. […] The association of these peptoids with VEGFR2 was evaluated using an ELISA-like assay. A commercially available fusion protein containing the VEGFR2 extracellular domain (amino acids 1-764 fused to 6× histidine-tagged Fc of human IgG, via the peptide IEGRMD; R&D Systems) was plated into 96-well plates and then mixed with various concentrations of […] Fluorescein (FITC)-labeled peptoid. After washing away unbound peptoid, the remaining fluorescence emission signal was measured at 520 nm. In this assay purified VEGFR2 protein was used instead of the whole PAE/KDR cells that over express VEGFR2, in order to confirm these compounds were binding only to the receptor.
Target sequence in this assay (P35968 20-764): as the sequence (P35968 20-764 limits assumed) above

[4] = tested on: A673 (human Ewing's sarcoma) tumors; settings: mouse, in vivo
Method: Cell Culture. The human Ewing's sarcoma cell line A673 (CRL-1598, ATCC, Manassas, Va.) was grown as a monolayer in Dulbeco's minimal essential medium (Invitrogen, Carlsbad, Calif.) supplemented with 10% heat-inactivated fetal calf serum (Atlanta Biologicals, Lawrenceville, Ga.). Cells were maintained at 37° C. in a mixture of 5% CO2 and 95% air. Cell viability was monitored by Trypan Blue (Invitrogen, Carlsbad, Calif.) exclusion after trypsinization. Cell fingerprinting was performed by Dr. Luc Girard at the McDermott Center at UT Southwestern to verify identity of cells and the cells were also tested and found to be negative for Mycoplasma prior to use.
Tumor study. Tumors were established in the right flank of 6-8 week old female athymic nu/nu mice (NCl, Frederick, Md.) by subcutaneous injection of 2.5 million cells in a volume of 50 μl PBS. On the same day, an Alzet subcutaneous pump (DURECT Corporation, Cupertino Calif.) was implanted per manufacturer's recommendations. […] Pumps were weighed empty and again when filled to ensure correct loading. Based on the mean pumping rate (0.2 μl/hr), these pumps were predicted to elute for 21 days. Implantation of the pump was performed by making a small incision on the back of the anesthetized animal and subsequently using a hemostat to create a subcutaneous pocket in which to place the pump. The incision was closed with a 5-0 prolene (Ethicon, Somerville, N.J.). Animal weights and tumor volumes (calipers) were recorded twice weekly. Volumes were calculated using the formula D*d^2*0.52 where D is the long diameter and d is the perpendicular short diameter.
Immunohistochemistry. Formalin-fixed tissues were embedded in paraffin, sectioned and stained with hematoxylin and eosin by the Molecular Histopathology Laboratory at UT Southwestern. H&E photographs were taken at a total magnification of 40× on a Nikon DXM 1200 digital camera (Melville, N.Y.). For immunohistochemical staining, slides were deparaffinized by heating at 60° C. for one hour followed by immersion in xylenes. Tissue was rehydrated by sequential immersion in ethanols. Endogenous peroxidase activity was blocked with 3% H2O2 in methanol. Antigen retrieval was performed using pH 6.0 citrate buffer (LabVision, Freemont, Calif.) for 15 minutes in a pressure cooker. […] The primary antibody was detected by incubating with a biotinylated donkey anti-rat IgG (Jackson ImmunoResearch, Westgrove, Pa.) followed by the ABC detection kit (Vector laboratories, Burlingame, Calif.). […] Microvessel density (MVD) was determined by manually counting the number of blood vessels in visible in the microscopic field of view (total magnification, 100×). […]

HUVEC [5] = assay: HUVEC proliferation assay; type: cell-based, human; settings: 1.3 nM VEGF
Method: HUVEC proliferation assay. HUVEC cells (ScienceCell) were harvested using enzyme free cell dissociation buffer and resuspended in ECM (5% FBS). Cells were plated (2000 cells/well) on white, clear bottom 96-well plates coated with gelatin. Cells were grown for 24 h at 37° C. […] The treatment was repeated with fresh media (0.2% FBS) and reagents after two days. After four days, viable cells were determined using CellTiter-Glo® Luminescent Cell Viability Assay kit (Promega), and the luminescent signal was read by the plate reader.

VEGFR2 [6] = molecular target: T1, VEGFR2; assay: GU40C4 cell surface binding assay (biotinylated peptoid, streptavidin quantum dots); type: cell-based; design: allow the library to be screened against the full-length receptor in as natural an environment as possible; host or cells: PAE/KDR (porcine aortic endothelial cells expressing human KDR); settings: for binding to cells with or without native VEGFR2: HeLa, HEK-293, HFF, MCF-7, only MCF-7 expresses VEGFR2
Method: Different types of cells (PAE/KDR, PAE, Hela, HEK-293, MCF-7, HFF) were grown on each well of chamber slides (Nalge Nunc International) (10,000 cells/chamber) overnight. Washed, and fixed cells with 3.7% formaldehyde and blocked with Startingblock blocking buffer. […] After the final washing, cells were mounted by ProLong® Gold antifade reagent with DAPI (Invitrogen) and visualized under DAPI filter of the fluorescence microscope.
Specificity of the GU40C4-VEGFR2 interaction on the cell surface. […] The DAPI-stained nuclei are shown in blue. […] In addition, the red halo was not observed when the VEGFR2-expressing PAE/KDR cells were incubated with only the streptavidin-coated red quantum dots without addition of the biotinylated peptoid (FIG. 5C).
An important question is whether the peptoid is able to recognize VEGFR2 on the surface of cells when the receptor is expressed at native levels. To address this question, the inventors incubated biotinylated CU40C4 and streptavidin-coated red quantum dots with four different cell lines: HeLa, HEK-293, human foreskin fibroblast (HFF) and MCF-7. Of these, only MCF-7 expresses significant quantities of the VEGFR2. […] The inventors conclude from these experiments that the dimeric peptoid is highly specific for the VEGFR2 and can recognize the receptor even when it is expressed at native levels on the surface of a breast cancer cell.
Target sequence in this assay (P35968 20-1356): as the sequence (P35968 20-1356) above

CC(C)CN(CC(=O)N(CCCCN)CC(=O)N(CC(=O)N(CC(=O)N(CCCCN)CC(=O)N(CC(=O)N(CCCCN)CC(=O)N(CCCCN)CC(=O)O)CC(C)C)Cc1ccc2c(c1)OCO2)C(C)c1ccccc1)C(=O)CNCCCCN (stereo not drawn) [GU40C, Nlys-Nleu-Nlys-Nmba-Npip-Nlys-Nleu-Nlys-Nlys] (H-[Nlys][Nleu][Nlys][X1][Gly(N-piperonyl)][Nlys][Nleu][Nlys][Nlys]-OH)
effect on VEGF-induced HUVEC tube formation (HUVEC [1]; 10 μM): slight effect; also recorded: small effect | competition with fluoresceinated GU40C for binding to VEGFR2 ECD (VEGFR2 ECD): competed efficiently | agonist activity on VEGFR2 phosphorylation (VEGFR2 [2]; PAE/KDR cells, Western blot): Neither peptoid at any concentration tested evinced agonist activity; also recorded: None of the peptoids exhibited agonist activity | effect on VEGF-induced VEGFR2 phosphorylation (in words) (VEGFR2 [2]; monomeric peptoids, 500 μM, 1.3 nM VEGF): weak antagonists | inhibition of VEGFR2 phosphorylation (VEGFR2 [2]; peptoid 500 μM, 1.3 nM VEGF, PAE/KDR cells): approximately 75% | binding to GST (GST): did not bind detectably | binding to CD105 (CD105): did not bind detectably | Kd (VEGFR2 [3]; immobilized VEGFR2 extracellular domain, read-out: KD): 2850 ± 400 nM | Kd (VEGFR2 [3]; read-out: dissociation constant (KD)): ~2000 nM | binding to VEGFR2 ECD (in words) (VEGFR2 [3]; ELISA-like binding assay): able to display binding | binding after pre-incubation of immobilized receptor with unlabeled VEGF (VEGFR2 [3]; fluoresceinated peptoid): almost no binding

CC(C)CN(CC(=O)N(CCCCN)CC(=O)N(CC(=O)N(CC(=O)N(CCCCN)CC(=O)N(CC(=O)N(CCCCN)CC(=O)N(CCCCN)CC(=O)NCCCCCC(=O)NCCC(=O)N[C@@H](CCCCNC(=O)CN(CCCCN)C(=O)CN(CCCCN)C(=O)CN(CC(C)C)C(=O)CN(CCCCN)C(=O)CN(Cc1ccc2c(c1)OCO2)C(=O)CN(C(=O)CN(CCCCN)C(=O)CN(CC(C)C)C(=O)CNCCCCN)[C@H](C)c1ccccc1)C(=O)N[C@@H](CSC1CC(=O)N(c2ccc3c(c2)C(=O)OC32c3ccc(O)cc3Oc3cc(O)ccc32)C1=O)C(N)=O)CC(C)C)Cc1ccc2c(c1)OCO2)[C@H](C)c1ccccc1)C(=O)CNCCCCN (stereo partly drawn) [GU40C4] (I: H-[Nlys][Nleu][Nlys][Nrpe][Gly(N-piperonyl)][Nlys][Nleu][Nlys][Nlys][Ahx][βAla]KC(Fluorescein(5-Mal))-NH2 / II: H-[Nlys][Nleu][Nlys][Nrpe][Gly(N-piperonyl)][Nlys][Nleu][Nlys][Nlys]; amide I:12-II:C)
effect on VEGF-induced HUVEC tube formation (HUVEC [1]; 1 μM and 10 μM): Clear evidence of the inhibition of tube formation; also recorded: able to disrupt HUVEC tube formation; also recorded: disrupted HUVEC tube formation | adverse effects of treatment [4]: no adverse effects | time after cessation of therapy until tumors grow at a rate similar to control [4]: 3 to 4 days | tumor necrosis (H&E histology) [4]: induced significant tumor necrosis | tumor size [4]: approximately 200 mm^3 | improvement of antagonism over the monomeric parent compound (VEGFR2 [2]): 100- to 500 fold | IC50 (HUVEC [5]; 4 days, read-out: IC50 of VEGF-induced HUVEC proliferation): ~1000 nM | inhibition of HUVEC proliferation (in words) (HUVEC [5]; 1 μM): halfway | inhibition of HUVEC proliferation (in words) (HUVEC [5]; 10 μM): reduced to essentially basal levels; also recorded: almost to the basal level | binding signal on PAE/KDR cells with competitor (VEGFR2 [6]; 100-fold excess unlabeled GU40C4): disappeared completely | binding to cells with or without native VEGFR2 (VEGFR2 [6]): did not associate detectably with cells that lacked VEGFR2 | binding to cells with or without native VEGFR2 (VEGFR2 [6]; listed as CU40C4): red halo was observed only when the peptoid was incubated with the MCF-7 cells | binding to PAE parental cells (VEGFR2 [6]; cells lacking the VEGFR2 expression vector): did not bind detectably
